Here are results for 19 compounds from patent publication US20230365592A1 (Agios Pharmaceuticals, Inc., priority 2022, published 2023).

This test deals with T1, human PAH with the R408W mutation (Homo sapiens, UniProt P00439, R408W).
T1 construct: expressed in transfected cells
T1 sequence (P00439 1-452 R408W): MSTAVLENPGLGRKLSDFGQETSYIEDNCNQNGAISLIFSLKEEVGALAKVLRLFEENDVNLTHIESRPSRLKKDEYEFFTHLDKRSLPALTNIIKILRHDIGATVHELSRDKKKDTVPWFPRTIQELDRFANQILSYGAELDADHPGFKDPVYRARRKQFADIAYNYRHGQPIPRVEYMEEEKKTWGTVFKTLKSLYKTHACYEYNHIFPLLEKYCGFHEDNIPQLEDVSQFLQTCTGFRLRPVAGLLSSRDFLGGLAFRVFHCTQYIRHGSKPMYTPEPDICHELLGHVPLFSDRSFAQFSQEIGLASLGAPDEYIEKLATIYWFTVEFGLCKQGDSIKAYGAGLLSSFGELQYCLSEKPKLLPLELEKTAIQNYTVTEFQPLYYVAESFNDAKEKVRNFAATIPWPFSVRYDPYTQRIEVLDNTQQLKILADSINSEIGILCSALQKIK
The test is described as follows: Cell Based Phenylalanine Flux Assay.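 Note: after compound treatment, cells received sepiapterin plus isotope-labelled Phenylalanine for 4 hours, then labelled Tyrosine in the medium was quantified, 10-point 2-fold dilution series run in duplicate.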 The settings on record: A375 cells expressing human R408W PAH; 24 hrs compound incubation; 13C-Tyrosine by LC-MS; average where tested multiple times; read-out: AC50.

`O=C(c1nnc(-c2ccccn2)o1)N1CCc2[nH]cnc2[C@@H]1c1cc2c(Cl)cccn2n1` [Example 734, (R)-(4-(4-chloropyrazolo[1,5-a]pyridin-2-yl)-6,7-dihydro-1H-imidazo[4,5-c]pyridin-5(4H)-yl)(5-(pyridin-2-yl)-1,3,4-oxadiazol-2-yl)methanone]: the AC50 was > 5000 nM.
The figure for `O=C(c1nnc(-c2ccccn2)o1)N1CCc2[nH]cnc2[C@H]1c1cc2c(Cl)cccn2n1` [Example 735, (S)-(4-(4-chloropyrazolo[1,5-a]pyridin-2-yl)-6,7-dihydro-1H-imidazo[4,5-c]pyridin-5(4H)-yl)(5-(pyridin-2-yl)-1,3,4-oxadiazol-2-yl)methanone] is < 500 nM; for `Cc1cccn2nc([C@@H]3c4nc[nH]c4CCN3C(=O)c3oc(C(C)(C)O)nc3C(F)F)cc12` [Example 736, (S)-(4-(difluoromethyl)-2-(2-hydroxypropan-2-yl)oxazol-5-yl)(4-(4-methylpyrazolo[1,5-a]pyridin-2-yl)-6,7-dihydro-1H-imidazo[4,5-c]pyridin-5(4H)-yl)methanone] it is < 500 nM; for `Cc1cccn2nc([C@H]3c4nc[nH]c4CCN3C(=O)c3oc(C(C)(C)O)nc3C(F)F)cc12` [Example 737, (R)-(4-(difluoromethyl)-2-(2-hydroxypropan-2-yl)oxazol-5-yl)(4-(4-methylpyrazolo[1,5-a]pyridin-2-yl)-6,7-dihydro-1H-imidazo[4,5-c]pyridin-5(4H)-yl)methanone] it is 1000 to 5000 nM.
For `Cc1cccn2nc([C@@H]3c4nc[nH]c4CCN3C(=O)c3oc([C@@H](C)O)nc3C(F)F)cc12` [Example 738, (4-(difluoromethyl)-2-((R)-1-hydroxyethyl)oxazol-5-yl)((S)-4-(4-methylpyrazolo[1,5-a]pyridin-2-yl)-6,7-dihydro-1H-imidazo[4,5-c]pyridin-5(4H)-yl)methanone], the half-maximal activity concentration (AC50) is < 500 nM.
Take `Cc1cccn2nc([C@H]3c4nc[nH]c4CCN3C(=O)c3oc([C@@H](C)O)nc3C(F)F)cc12` [Example 739, (4-(difluoromethyl)-2-((R)-1-hydroxyethyl)oxazol-5-yl)((R)-4-(4-methylpyrazolo[1,5-a]pyridin-2-yl)-6,7-dihydro-1H-imidazo[4,5-c]pyridin-5(4H)-yl)methanone]: the AC50 is 1000 to 5000 nM.
`Cc1cccn2nc([C@H]3c4nc[nH]c4CCN3C(=O)c3nnc(-c4ccccn4)o3)cc12` [Example 740, (R)-(4-(4-methylpyrazolo[1,5-a]pyridin-2-yl)-6,7-dihydro-1H-imidazo[4,5-c]pyridin-5(4H)-yl)(5-(pyridin-2-yl)-1,3,4-oxadiazol-2-yl)methanone]: the half-maximal activity concentration (AC50) is > 5000 nM.
Next, `Cc1cccn2nc([C@@H]3c4nc[nH]c4CCN3C(=O)c3nnc(-c4ccccn4)o3)cc12` [Example 741, (S)-(4-(4-methylpyrazolo[1,5-a]pyridin-2-yl)-6,7-dihydro-1H-imidazo[4,5-c]pyridin-5(4H)-yl)(5-(pyridin-2-yl)-1,3,4-oxadiazol-2-yl)methanone]: < 500 nM; `Cc1cccn2nc([C@@H]3c4nc[nH]c4CCN3C(=O)c3nnc(-c4ccn(C)n4)o3)cc12` [Example 743, (S)-(5-(1-methyl-1H-pyrazol-3-yl)-1,3,4-oxadiazol-2-yl)(4-(4-methylpyrazolo[1,5-a]pyridin-2-yl)-6,7-dihydro-1H-imidazo[4,5-c]pyridin-5(4H)-yl)methanone]: < 500 nM; `CC(C)(O)c1nc(C(F)(F)F)c(C(=O)N2CCc3[nH]cnc3[C@@H]2c2cc3c(F)cccn3n2)o1` [Example 745, (R)-(4-(4-fluoropyrazolo[1,5-a]pyridin-2-yl)-6,7-dihydro-1H-imidazo[4,5-c]pyridin-5(4H)-yl)(2-(2-hydroxypropan-2-yl)-4-(trifluoromethyl)oxazol-5-yl)methanone]: 1000 to 5000 nM.
Consider `CC(C)(O)c1nc(Br)c(C(=O)N2CCc3[nH]cnc3[C@H]2c2cc3c(F)cccn3n2)o1` [Example 746, (S)-(4-bromo-2-(2-hydroxypropan-2-yl)oxazol-5-yl)(4-(4-fluoropyrazolo[1,5-a]pyridin-2-yl)-6,7-dihydro-1H-imidazo[4,5-c]pyridin-5(4H)-yl)methanone], for which the AC50 was < 500 nM.
As for `CC(C)(O)c1nc(Br)c(C(=O)N2CCc3[nH]cnc3[C@@H]2c2cc3c(F)cccn3n2)o1` [Example 747, (R)-(4-bromo-2-(2-hydroxypropan-2-yl)oxazol-5-yl)(4-(4-fluoropyrazolo[1,5-a]pyridin-2-yl)-6,7-dihydro-1H-imidazo[4,5-c]pyridin-5(4H)-yl)methanone], the concentration at half-maximal activity (AC50) was > 5000 nM.
The figure for `Cc1cccn2nc([C@@H]3c4nc[nH]c4CCN3C(=O)c3nnc(-c4cnn(C)c4)o3)cc12` [Example 748, (S)-(5-(1-methyl-1H-pyrazol-4-yl)-1,3,4-oxadiazol-2-yl)(4-(4-methylpyrazolo[1,5-a]pyridin-2-yl)-6,7-dihydro-1H-imidazo[4,5-c]pyridin-5(4H)-yl)methanone] is < 500 nM; for `Cc1cccn2nc([C@H]3c4nc[nH]c4CCN3C(=O)c3nnc(-c4cnn(C)c4)o3)cc12` [Example 749, (R)-(5-(1-methyl-1H-pyrazol-4-yl)-1,3,4-oxadiazol-2-yl)(4-(4-methylpyrazolo[1,5-a]pyridin-2-yl)-6,7-dihydro-1H-imidazo[4,5-c]pyridin-5(4H)-yl)methanone] it is > 5000 nM; for `Cc1nc([C@H](C)O)oc1C(=O)N1CCc2[nH]cnc2[C@H]1c1cc2c(C)cccn2n1` [Example 750, (2-((S)-1-hydroxyethyl)-4-methyloxazol-5-yl)((S)-4-(4-methylpyrazolo[1,5-a]pyridin-2-yl)-6,7-dihydro-1H-imidazo[4,5-c]pyridin-5(4H)-yl)methanone] it is < 500 nM.
The figure for `Cc1nc([C@@H](C)O)oc1C(=O)N1CCc2[nH]cnc2[C@H]1c1cc2c(C)cccn2n1` [Example 752, (2-((R)-1-hydroxyethyl)-4-methyloxazol-5-yl)((S)-4-(4-methylpyrazolo[1,5-a]pyridin-2-yl)-6,7-dihydro-1H-imidazo[4,5-c]pyridin-5(4H)-yl)methanone] is < 500 nM; for `Cc1nc([C@@H](C)O)oc1C(=O)N1CCc2[nH]cnc2[C@@H]1c1cc2c(C)cccn2n1` [Example 753, (2-((R)-1-hydroxyethyl)-4-methyloxazol-5-yl)((R)-4-(4-methylpyrazolo[1,5-a]pyridin-2-yl)-6,7-dihydro-1H-imidazo[4,5-c]pyridin-5(4H)-yl)methanone] it is 1000 to 5000 nM; for `Cc1nc(C(C)(C)O)oc1C(=O)N1CCc2[nH]cnc2[C@H]1c1cc2c(C)cccn2n1` [Example 754, (S)-(2-(2-hydroxypropan-2-yl)-4-methyloxazol-5-yl)(4-(4-methylpyrazolo[1,5-a]pyridin-2-yl)-6,7-dihydro-1H-imidazo[4,5-c]pyridin-5(4H)-yl)methanone] it is < 500 nM.
The figure for `CC(C)(O)c1nc(Cl)c(C(=O)N2CCc3[nH]cnc3[C@H]2c2cc3c(F)cccn3n2)o1` [Example 756, (S)-(4-chloro-2-(2-hydroxypropan-2-yl)oxazol-5-yl)(4-(4-fluoropyrazolo[1,5-a]pyridin-2-yl)-6,7-dihydro-1H-imidazo[4,5-c]pyridin-5(4H)-yl)methanone] is < 500 nM.

One may read the AC50 as the concentration at which the activity in the assay is half-maximal.
